Results taken from patent US8962655B2, “Composition for treatment of undifferentiated gastric cancer” (Eisai R&D Management Co., Ltd., priority 2007, dated 2015).

Key:
Type in all cases: in vivo
[1] = tested on: human scirrhous gastric cancer cell line (HSC-39); assay: Combination use with 5-fluorouracil in subcutaneous transplanted (xenograft) models of HSC-39; conditions: HSC-39 xenograft, nude mice
Method: (§1) Human scirrhous gastric cancer cell line HSC-39 (purchased from Immuno-Biological Laboratories Co., Ltd.) was cultured in RPMI1640 (containing 10% FBS) in a 5% carbon dioxide gas incubator at 37° C. to about 80% confluence, and then the cells were collected with trypsin-EDTA. A 5×10^7 cells/mL suspension was prepared with a phosphate buffer, and each 0.1 mL of the resulting cell suspension was subcutaneously transplanted to nude mice at the side of their bodies. Thirteen days after the transplantation, 4-(3-chloro-4-(cyclopropylaminocarbonyl)aminophenoxy)-7-methoxy-6-quinolinecarboxamide (3, 10 or 30 mg/kg, once a day for four weeks, oral) and 5-fluorouracil (Kyowa Hakko) (50 mg/kg, every four days for three times, intravenous) were administered alone or in combination. The major and minor axes of tumors were measured with Digimatic caliper (Mitsutoyo Corporation), and tumor volumes and relative tumor volumes were calculated according to the following formulae: […]

[2] = tested on: human scirrhous gastric cancer cell line (HSC-39); assay: Combination use with irinotecan hydrochloride in subcutaneous transplanted (xenograft) models of HSC-39; conditions: once a day for four weeks, oral, HSC-39 xenograft, nude mice
Method: Human scirrhous gastric cancer cell line HSC-39 (purchased from Immuno-Biological Laboratories Co,. Ltd.) was cultured in RPMI1640 (containing 10% FBS) in a 5% carbon dioxide gas incubator at 37° C. to about 80% confluence, and then the cells were collected with trypsin-EDTA. A 5×10^7 cells/mL suspension was prepared with a phosphate buffer, and each 0.1 mL of the resulting cell suspension was subcutaneously transplanted to nude mice at the side of their bodies.
Twelve days after the transplantation, 4-(3-chloro-4-(cyclopropylaminocarbonyl)aminophenoxy)-7-methoxy-6-quinolinecarboxamide (3, 10 or 30 mg/kg, once a day for four weeks, oral) and irinotecan hydrochloride (Daiichi Seiyaku) (100 mg/kg, every four days for three times, intravenous) were administered alone or in combination. The major and minor axes of tumors were measured with Digimatic caliper (Mitsutoyo Corporation), and tumor volumes and relative tumor volumes were calculated according to the following formulae: Tumor Volume (TV)=Major axis of tumor (mm)×(Minor axis of tumor)^2 (mm^2)/2 Relative Tumor Volume (RTV)=Tumor volume on measurement day/Tumor volume on the first administration day.

[3] = tested on: human scirrhous gastric cancer cell line (HSC-39); assay: Combination use with paclitaxel in subcutaneous transplanted (xenograft) models of HSC-39; conditions: HSC-39 xenograft, nude mice
Method: as §1, with “Eleven” for “Thirteen”, “paclitaxel (Calbiochem) (14” for “5-fluorouracil (Kyowa Hakko) (50”, “once a day” for “every four days”, “five days,” for “three times,”

[4] = Compound A 3 mg/kg alone, once a day for four weeks, oral
[5] = Compound A 10 mg/kg alone, once a day for four weeks, oral
[6] = Compound A 30 mg/kg alone, once a day for four weeks, oral

## O=c1[nH]cc(F)c(=O)[nH]1 [5-Fluorouracil, 5-fluorouracil, reference compound]
[1]; 5-fluorouracil 50 mg/kg alone, every four days for three times, intravenous
  Relative tumor volume on Day 29 Average ± standard deviation: 5.16 ± 1.37

## COc1cc2nccc(Oc3ccc(NC(=O)NC4CC4)c(Cl)c3)c2cc1C(N)=O [Compound A, 4-(3-chloro-4-(cyclopropylaminocarbonyl)aminophenoxy)-7-methoxy-6-quinolinecarboxamide]
[2]; Compound A 3 mg/kg alone
  Relative tumor volume on Day 29 Average ± standard deviation: 4.29 ± 1.51
[2]; Compound A 10 mg/kg alone
  Relative tumor volume on Day 29 Average ± standard deviation: 2.93 ± 1.55
[2]; Compound A 30 mg/kg alone
  Relative tumor volume on Day 29 Average ± standard deviation: 1.76 ± 0.92
[1]; [4]
  Relative tumor volume on Day 29 Average ± standard deviation: 4.16 ± 1.28
[1]; [5]
  Relative tumor volume on Day 29 Average ± standard deviation: 3.73 ± 1.21
[1]; [6]
  Relative tumor volume on Day 29 Average ± standard deviation: 2.72 ± 1.33
[3]; [4]
  Relative tumor volume on Day 29 Average ± standard deviation: 3.79 ± 1.43
[3]; [5]
  Relative tumor volume on Day 29 Average ± standard deviation: 3.27 ± 1.26
[3]; [6]
  Relative tumor volume on Day 29 Average ± standard deviation: 1.69 ± 0.72

## CC(=O)O[C@H]1C(=O)[C@@]2(C)[C@H]([C@H](OC(=O)c3ccccc3)[C@]3(O)C[C@H](OC(=O)[C@H](O)[C@@H](NC(=O)c4ccccc4)c4ccccc4)C(C)=C1C3(C)C)[C@]1(OC(C)=O)CO[C@@H]1C[C@@H]2O [Paclitaxel, paclitaxel, reference compound]
[3]; paclitaxel 14 mg/kg alone, once a day for five days, intravenous
  Relative tumor volume on Day 29 Average ± standard deviation: 4.26 ± 2.06
